# Measured values from the kinase profiling compilation of Christmann-Franck et al. (2016).
# Values joined by “and” are separate entries in the source; they are usually repeats but may differ in a detail not shown here. Identical values can stand only once.
# Tests used:
# Assay in all cases: radiometric filter-binding kinase assay, Kinase HotSpot
# Conditions in all cases: compound 0.5 µM; ATP 10 µM
# [1] = molecular target: PRKG2 (human) (UniProt Q13237)
# [2] = molecular target: MYO3B (human) (UniProt Q8WXR4)
# [3] = molecular target: CLK4 (human) (UniProt Q9HAZ1)
# CLK4 (human), sequence (Q9HAZ1 whole entry, looked up): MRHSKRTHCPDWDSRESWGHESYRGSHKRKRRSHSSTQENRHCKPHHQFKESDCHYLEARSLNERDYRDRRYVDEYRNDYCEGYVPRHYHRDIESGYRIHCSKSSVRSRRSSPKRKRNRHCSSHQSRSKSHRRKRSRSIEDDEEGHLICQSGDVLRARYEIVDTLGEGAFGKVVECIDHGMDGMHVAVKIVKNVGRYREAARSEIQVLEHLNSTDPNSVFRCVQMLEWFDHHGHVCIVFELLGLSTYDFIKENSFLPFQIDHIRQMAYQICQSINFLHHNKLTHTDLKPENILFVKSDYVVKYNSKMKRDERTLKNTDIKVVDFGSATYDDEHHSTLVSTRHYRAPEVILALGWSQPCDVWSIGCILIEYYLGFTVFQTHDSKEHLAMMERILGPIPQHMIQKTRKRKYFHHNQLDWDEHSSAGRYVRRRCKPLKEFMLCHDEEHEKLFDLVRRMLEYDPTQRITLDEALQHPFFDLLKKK
# [4] = molecular target: ADRBK2 (human) (UniProt P35626)
# [5] = molecular target: CSNK1A1 (human) (UniProt P48729)
# [6] = molecular target: LYN (human) (UniProt P07948)
# [7] = molecular target: MLTK (human) (UniProt Q9NYL2)
# [8] = molecular target: STK16 (human) (UniProt O75716)
# STK16 (human), sequence (O75716 whole entry, looked up): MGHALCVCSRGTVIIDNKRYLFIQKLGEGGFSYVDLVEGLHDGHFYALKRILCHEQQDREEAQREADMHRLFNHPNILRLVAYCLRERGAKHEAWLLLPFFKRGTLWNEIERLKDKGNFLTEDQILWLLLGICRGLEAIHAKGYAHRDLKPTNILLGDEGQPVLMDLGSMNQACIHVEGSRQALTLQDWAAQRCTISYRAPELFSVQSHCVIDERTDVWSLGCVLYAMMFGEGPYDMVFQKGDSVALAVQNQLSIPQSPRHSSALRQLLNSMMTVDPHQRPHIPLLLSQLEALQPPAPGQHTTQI
# [9] = molecular target: PTK6 (human) (UniProt Q13882)
# PTK6 (human), sequence (Q13882 whole entry, looked up): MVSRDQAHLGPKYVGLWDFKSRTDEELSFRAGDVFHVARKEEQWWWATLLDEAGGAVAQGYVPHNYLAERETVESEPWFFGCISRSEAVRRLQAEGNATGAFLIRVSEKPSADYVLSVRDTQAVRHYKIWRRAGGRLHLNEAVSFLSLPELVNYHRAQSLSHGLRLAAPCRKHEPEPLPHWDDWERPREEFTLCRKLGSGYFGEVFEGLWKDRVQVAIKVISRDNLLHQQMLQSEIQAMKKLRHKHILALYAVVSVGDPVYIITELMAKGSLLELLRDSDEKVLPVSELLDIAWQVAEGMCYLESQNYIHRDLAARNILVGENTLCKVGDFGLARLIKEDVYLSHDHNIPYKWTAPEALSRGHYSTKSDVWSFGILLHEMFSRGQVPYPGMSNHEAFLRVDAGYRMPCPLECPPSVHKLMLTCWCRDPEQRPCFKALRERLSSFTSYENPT
# [10] = molecular target: MAPKAPK2 (human) (UniProt P49137)
# [11] = molecular target: BRSK1 (human) (UniProt Q8TDC3)
# [12] = molecular target: MELK (human) (UniProt Q14680)
# [13] = molecular target: MAPK14 (human) (UniProt Q16539)
# MAPK14 (human), sequence (Q16539 whole entry, looked up): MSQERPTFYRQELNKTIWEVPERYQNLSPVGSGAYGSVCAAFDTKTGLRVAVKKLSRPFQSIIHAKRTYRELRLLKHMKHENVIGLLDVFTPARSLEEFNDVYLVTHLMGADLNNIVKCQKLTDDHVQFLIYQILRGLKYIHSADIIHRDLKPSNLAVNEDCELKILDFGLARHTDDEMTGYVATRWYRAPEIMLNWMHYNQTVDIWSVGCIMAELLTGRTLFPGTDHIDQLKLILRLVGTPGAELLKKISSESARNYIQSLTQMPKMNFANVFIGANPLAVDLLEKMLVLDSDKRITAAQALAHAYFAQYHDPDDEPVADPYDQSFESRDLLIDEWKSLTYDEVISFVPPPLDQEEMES
# [14] = molecular target: EPHB2 (human) (UniProt P29323)
# [15] = molecular target: NTRK2 (human) (UniProt Q16620)
# [16] = molecular target: PTK2 (human) (UniProt Q05397)
# [17] = molecular target: PRKCE (human) (UniProt Q02156)
# [18] = molecular target: SLK (human) (UniProt Q9H2G2)
# [19] = molecular target: AXL (human) (UniProt P30530)
# AXL (human), sequence (P30530 whole entry, looked up): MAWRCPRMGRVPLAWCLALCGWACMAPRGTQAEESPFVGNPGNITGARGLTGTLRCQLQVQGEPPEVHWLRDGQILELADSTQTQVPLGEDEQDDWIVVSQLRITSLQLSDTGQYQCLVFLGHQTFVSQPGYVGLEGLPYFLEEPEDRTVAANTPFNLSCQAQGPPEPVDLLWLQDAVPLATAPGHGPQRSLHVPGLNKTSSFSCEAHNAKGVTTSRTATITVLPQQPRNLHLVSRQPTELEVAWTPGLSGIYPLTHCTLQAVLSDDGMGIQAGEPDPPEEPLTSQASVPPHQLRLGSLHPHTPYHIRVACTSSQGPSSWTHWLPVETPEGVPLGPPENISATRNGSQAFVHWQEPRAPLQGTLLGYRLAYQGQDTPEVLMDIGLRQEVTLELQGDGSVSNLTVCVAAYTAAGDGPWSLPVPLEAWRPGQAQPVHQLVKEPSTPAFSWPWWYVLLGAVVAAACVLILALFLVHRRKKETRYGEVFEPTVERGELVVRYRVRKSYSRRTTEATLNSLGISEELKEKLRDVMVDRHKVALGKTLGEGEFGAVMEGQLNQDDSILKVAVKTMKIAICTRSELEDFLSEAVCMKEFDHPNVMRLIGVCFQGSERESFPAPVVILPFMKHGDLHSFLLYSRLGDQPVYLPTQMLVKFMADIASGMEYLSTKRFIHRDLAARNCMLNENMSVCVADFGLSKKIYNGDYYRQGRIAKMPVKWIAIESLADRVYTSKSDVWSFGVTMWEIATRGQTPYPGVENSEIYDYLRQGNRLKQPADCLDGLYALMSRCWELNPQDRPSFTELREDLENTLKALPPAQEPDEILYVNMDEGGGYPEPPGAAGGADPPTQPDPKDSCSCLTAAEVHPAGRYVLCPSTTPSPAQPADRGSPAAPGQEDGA
# [20] = molecular target: NTRK3 (human) (UniProt Q16288)
# [21] = molecular target: PHKG1 (human) (UniProt Q16816)
# [22] = molecular target: PAK4 (human) (UniProt O96013)
# [23] = molecular target: TTK (human) (UniProt P33981)
# TTK (human), sequence (P33981 whole entry, looked up): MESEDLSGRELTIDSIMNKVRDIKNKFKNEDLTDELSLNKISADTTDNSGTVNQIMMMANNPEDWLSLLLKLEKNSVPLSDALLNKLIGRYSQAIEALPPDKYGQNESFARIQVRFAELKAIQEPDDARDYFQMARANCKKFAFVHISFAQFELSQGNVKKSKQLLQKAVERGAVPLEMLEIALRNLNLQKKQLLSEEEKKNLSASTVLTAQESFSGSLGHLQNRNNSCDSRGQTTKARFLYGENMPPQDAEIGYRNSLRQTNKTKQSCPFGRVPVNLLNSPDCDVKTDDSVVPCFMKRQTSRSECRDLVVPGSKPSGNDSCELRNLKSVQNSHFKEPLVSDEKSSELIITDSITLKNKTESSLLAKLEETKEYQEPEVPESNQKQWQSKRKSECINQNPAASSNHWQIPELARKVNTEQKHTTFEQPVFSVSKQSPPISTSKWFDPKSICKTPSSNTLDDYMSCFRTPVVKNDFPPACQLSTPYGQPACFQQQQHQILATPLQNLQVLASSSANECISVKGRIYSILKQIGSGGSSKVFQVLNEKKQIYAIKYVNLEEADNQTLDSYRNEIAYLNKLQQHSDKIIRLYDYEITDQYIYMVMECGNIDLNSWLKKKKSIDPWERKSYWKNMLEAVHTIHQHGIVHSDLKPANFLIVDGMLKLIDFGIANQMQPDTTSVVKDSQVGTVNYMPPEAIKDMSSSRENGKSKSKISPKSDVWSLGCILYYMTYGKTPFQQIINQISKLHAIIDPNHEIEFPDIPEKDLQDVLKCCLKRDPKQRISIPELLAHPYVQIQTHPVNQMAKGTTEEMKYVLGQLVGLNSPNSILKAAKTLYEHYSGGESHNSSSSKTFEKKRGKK
# [24] = molecular target: RPS6KA6 KD1 KD2 (human) (UniProt Q9UK32)
# [25] = molecular target: KIT (human) (UniProt P10721)
# [26] = molecular target: PLK3 (human) (UniProt Q9H4B4)
# [27] = molecular target: PDGFRB (human) (UniProt P09619)
# [28] = molecular target: SRC (human) (UniProt P12931)
# [29] = molecular target: GRK4 (human) (UniProt P32298)
# [30] = molecular target: NTRK1 (human) (UniProt P04629)
# NTRK1 (human), sequence (P04629 whole entry, looked up): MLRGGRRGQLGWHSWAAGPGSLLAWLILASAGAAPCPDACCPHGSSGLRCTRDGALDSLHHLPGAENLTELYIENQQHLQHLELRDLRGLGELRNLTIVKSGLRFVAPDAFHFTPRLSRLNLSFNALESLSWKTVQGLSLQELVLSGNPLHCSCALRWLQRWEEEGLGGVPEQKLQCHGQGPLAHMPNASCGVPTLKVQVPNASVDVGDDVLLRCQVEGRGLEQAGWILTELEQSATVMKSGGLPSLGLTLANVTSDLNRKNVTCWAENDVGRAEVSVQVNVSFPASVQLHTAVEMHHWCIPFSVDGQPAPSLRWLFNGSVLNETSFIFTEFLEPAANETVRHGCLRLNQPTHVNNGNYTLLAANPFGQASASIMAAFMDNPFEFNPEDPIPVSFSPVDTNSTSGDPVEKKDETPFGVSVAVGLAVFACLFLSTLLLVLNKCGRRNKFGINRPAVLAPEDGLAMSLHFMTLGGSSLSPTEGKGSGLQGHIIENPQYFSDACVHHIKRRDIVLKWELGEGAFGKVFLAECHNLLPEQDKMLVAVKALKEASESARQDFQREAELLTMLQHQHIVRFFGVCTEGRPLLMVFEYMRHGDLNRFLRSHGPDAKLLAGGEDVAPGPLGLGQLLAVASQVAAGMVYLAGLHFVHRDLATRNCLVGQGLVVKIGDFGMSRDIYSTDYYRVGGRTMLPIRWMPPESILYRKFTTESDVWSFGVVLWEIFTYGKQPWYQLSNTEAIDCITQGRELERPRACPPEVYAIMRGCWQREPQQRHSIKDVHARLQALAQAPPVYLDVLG
# [31] = molecular target: CLK3 (human) (UniProt P49761)
# [32] = molecular target: NEK2 (human) (UniProt P51955)
# NEK2 (human), sequence (P51955 whole entry, looked up): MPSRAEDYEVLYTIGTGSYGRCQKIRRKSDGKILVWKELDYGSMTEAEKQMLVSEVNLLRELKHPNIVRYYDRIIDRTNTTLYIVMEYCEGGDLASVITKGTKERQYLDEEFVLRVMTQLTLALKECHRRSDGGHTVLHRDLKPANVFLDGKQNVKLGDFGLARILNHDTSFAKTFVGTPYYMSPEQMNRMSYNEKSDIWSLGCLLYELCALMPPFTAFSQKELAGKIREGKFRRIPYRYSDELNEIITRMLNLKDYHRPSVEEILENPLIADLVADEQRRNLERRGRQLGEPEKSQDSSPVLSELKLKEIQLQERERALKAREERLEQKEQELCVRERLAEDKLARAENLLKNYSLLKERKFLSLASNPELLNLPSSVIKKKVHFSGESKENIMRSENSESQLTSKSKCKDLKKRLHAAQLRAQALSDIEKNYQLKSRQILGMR
# [33] = molecular target: PRKD2 (human) (UniProt Q9BZL6)
# [34] = molecular target: WEE1 (human) (UniProt P30291)
# [35] = molecular target: NEK1 (human) (UniProt Q96PY6)
# [36] = molecular target: MAPK3 (human) (UniProt P27361)
# MAPK3 (human), sequence (P27361 whole entry, looked up): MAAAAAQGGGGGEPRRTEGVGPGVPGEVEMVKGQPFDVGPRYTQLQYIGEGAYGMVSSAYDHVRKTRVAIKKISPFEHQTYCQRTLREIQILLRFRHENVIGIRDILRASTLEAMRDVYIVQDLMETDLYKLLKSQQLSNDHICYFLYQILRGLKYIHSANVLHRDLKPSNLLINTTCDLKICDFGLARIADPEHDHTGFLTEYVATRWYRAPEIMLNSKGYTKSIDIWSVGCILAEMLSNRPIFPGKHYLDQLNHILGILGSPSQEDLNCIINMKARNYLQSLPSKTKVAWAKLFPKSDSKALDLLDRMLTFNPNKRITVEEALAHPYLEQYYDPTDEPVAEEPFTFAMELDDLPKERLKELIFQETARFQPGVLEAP
# [37] = molecular target: SRMS (human) (UniProt Q9H3Y6)
# [38] = molecular target: TLK2 (human) (UniProt Q86UE8)
# [39] = molecular target: CDK9 CCNT1 (human) (UniProt P50750+O60563)
# [40] = molecular target: IRAK4 (human) (UniProt Q9NWZ3)
# [41] = molecular target: FGFR3 (human) (UniProt P22607)
# [42] = molecular target: MAPK9 (human) (UniProt P45984)
smiles,measurement,setting,value
Cc1ccc(Nc2nccc(N(C)c3ccc4c(C)n(C)nc4c3)n2)cc1S(N)(=O)=O,residual activity,[1],96%
same,residual activity,[2],83.4%
same,residual activity,[3],91.7%
same,residual activity,[4],99.3%
same,residual activity,[5],100%
same,residual activity,[6],52.1% and 58.9%
same,residual activity,[7],96.9%
same,residual activity,[8],43.8%
same,residual activity,[9],66.2%
same,residual activity,[10],99.6%
same,residual activity,[11],97.2%
same,residual activity,[12],87.5%
same,residual activity,[13],91.2%
same,residual activity,[14],91.9%
same,residual activity,[15],91.5%
same,residual activity,[16],76%
same,residual activity,[17],100%
same,residual activity,[18],84.9%
same,residual activity,[19],78.1%
same,residual activity,[20],87.8%
same,residual activity,[21],92.5%
same,residual activity,[22],92%
same,residual activity,[23],73.4%
same,residual activity,[24],96.8%
same,residual activity,[25],10.9%
same,residual activity,[26],101%
same,residual activity,[27],40.4%
same,residual activity,[28],70.7%
same,residual activity,[29],91.7%
same,residual activity,[30],91.8%
same,residual activity,[31],107%
same,residual activity,[32],110%
same,residual activity,[33],90.8%
same,residual activity,[34],95.3%
same,residual activity,[35],105%
same,residual activity,[36],102%
same,residual activity,[37],115%
same,residual activity,[38],85.6%
same,residual activity,[39],91.5%
same,residual activity,[40],98.4%
same,residual activity,[41],39.3%
COc1cc2ncnc(Nc3cccc(Cl)c3)c2cc1OC,residual activity,[1],92.2%
same,residual activity,[2],81.2%
same,residual activity,[3],98.2%
same,residual activity,[4],99.9%
same,residual activity,[5],92.5%
same,residual activity,[7],99.3%
same,residual activity,[8],101%
same,residual activity,[9],39%
same,residual activity,[10],98%
same,residual activity,[11],93.1%
same,residual activity,[42],92.2%
same,residual activity,[12],81.8%
same,residual activity,[13],107%
same,residual activity,[14],98.1%
same,residual activity,[15],93.3%
same,residual activity,[16],95.1%
same,residual activity,[17],97.8%
same,residual activity,[18],64.6%
same,residual activity,[19],95.3%
same,residual activity,[20],86.3%
same,residual activity,[21],88.9%
same,residual activity,[22],76.5%
same,residual activity,[23],108%
same,residual activity,[24],90.5%
same,residual activity,[25],94%
same,residual activity,[26],92.3%
same,residual activity,[27],100%
same,residual activity,[28],71.9%
same,residual activity,[29],102%
same,residual activity,[30],92.6%
same,residual activity,[31],90.5%
same,residual activity,[32],88.3%
same,residual activity,[33],92.3%
same,residual activity,[34],92.4%
same,residual activity,[35],93.1%
same,residual activity,[36],96.4%
same,residual activity,[37],93.8%
same,residual activity,[38],93.9%
same,residual activity,[39],85.1%
same,residual activity,[40],77.7%
same,residual activity,[41],88.5%
O=C1NC(=O)c2c1c1c3ccccc3n3c1c1c2c2ccccc2n1C1CCC3O1,residual activity,[1],6.01%
same,residual activity,[2],19.1%
same,residual activity,[3],20.3%
same,residual activity,[4],101%
same,residual activity,[5],104%
same,residual activity,[7],89.7%
same,residual activity,[8],58.1%
same,residual activity,[9],83.9%
same,residual activity,[10],99.2%
same,residual activity,[11],14.8%
same,residual activity,[42],96.1%
same,residual activity,[12],7.13%
same,residual activity,[13],102%
same,residual activity,[14],98.4%
same,residual activity,[15],6.87%
same,residual activity,[16],23.5%
same,residual activity,[17],28.4%
same,residual activity,[18],26%
same,residual activity,[19],38.1%
same,residual activity,[20],1.41%
same,residual activity,[21],2.75%
same,residual activity,[22],75.3%
same,residual activity,[23],76.4%
same,residual activity,[24],1.08%
same,residual activity,[25],60.8%
same,residual activity,[26],52.5%
same,residual activity,[27],19.1%
same,residual activity,[28],69.5%
same,residual activity,[29],77%
same,residual activity,[30],4.98%
same,residual activity,[31],97%
same,residual activity,[32],93.8%
same,residual activity,[33],2.02%
same,residual activity,[34],16.9%
same,residual activity,[35],50.9%
same,residual activity,[36],102%
same,residual activity,[37],105%
same,residual activity,[38],14.1%
same,residual activity,[39],8.52%
same,residual activity,[40],14%
same,residual activity,[41],36.3%
